Experimental data taken from ChEMBL document CHEMBL4610121, “Rapid Elaboration of Fragments into Leads by X-ray Crystallographic Screening of Parallel Chemical Libraries (REFiLX)” (J Med Chem, 2020).
In brackets after ≈: the same amount, converted by molar mass.

What was measured:
[1] = Solubility in PH 7.4 buffer by 1D 1H qNMR analysis; assay type: physicochemical
[2] = target: T1, Thiol:disulfide interchange protein DsbA (Escherichia coli (strain K12), UniProt P0AEG4); experiment: Binding affinity to uniformly labeled 15N oxidized Escherichia coli DsbA by 1H-15N HSQC NMR spectroscopy
T1 sequence (P0AEG4 whole entry): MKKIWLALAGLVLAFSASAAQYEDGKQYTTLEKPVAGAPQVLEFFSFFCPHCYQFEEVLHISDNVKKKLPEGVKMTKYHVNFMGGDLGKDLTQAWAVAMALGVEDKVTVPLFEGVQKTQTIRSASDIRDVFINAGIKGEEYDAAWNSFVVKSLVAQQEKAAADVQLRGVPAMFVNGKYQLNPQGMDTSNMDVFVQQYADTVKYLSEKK

Compound | solubility [1] [µM] | Kd [2] [µM]
Cc1cc(Oc2ccc(CC(=O)N3CCN(C)C(=O)C3)cc2)ccc1C#N | 1000 (≈ 363 µg/mL) | 480
CCN(CCn1cccn1)C(=O)Cc1ccc(Oc2ccc(C#N)c(C)c2)cc1 | 250 (≈ 97.1 µg/mL) | 62
CC(=O)N1CCN(C(=O)Cc2ccc(Oc3ccc(C#N)c(C)c3)cc2)CC1 | 1000 (≈ 377 µg/mL) | 430
Cc1nc(CCN(C)C(=O)Cc2ccc(Oc3ccc(C#N)c(C)c3)cc2)no1 | 500 (≈ 195 µg/mL) | 230
N#Cc1ccc(Oc2ccc(O)cc2)cc1 | – | > 1000
Cc1cc(Oc2ccc(CC(=O)NCCN3CCCN(C)CC3)cc2)ccc1C#N | 1000 (≈ 407 µg/mL) | 1100

Further lines, results first:

solubility [1] [µM] | Kd [2] [µM] | Compound
1000 (≈ 267 µg/mL) | – | Cc1cc(Oc2ccc(CC(=O)O)cc2)ccc1C#N
500 (≈ 168 µg/mL) | 365 | Cc1cc(Oc2ccc(CC(=O)N3CCOCC3)cc2)ccc1C#N
1000 (≈ 380 µg/mL) | 290 | Cc1cc(Oc2ccc(CC(=O)N3CCOCC3C(=O)O)cc2)ccc1C#N (racemic)
